Laboratory results as given in patent US4510158A, “2-Phenylindole derivatives, their use as complement inhibitors” (Sterling Drug Inc., priority 1984, dated 1985).

Legend:
[1] = test system: human complement (C1-C9), classical complement pathway; experiment: Hemolytic molecular titrations of classical complement activity (lysis of sensitized sheep erythrocytes by normal human serum); type: biochemical; details: concentration effecting 50% suppression of lysis (Z/Zo=0.5), 37° C., 60 min, read-out: Classical Complement Pathway Inhibition IC50
Protocol: (§1) The compounds were evaluated in vitro for their inhibition of human complement (C1-C9) using hemolytic molecular titrations, and the reverse passive Arthus reaction (RPAR) in guinea pigs was chosen as a complement mediated model of acute inflammation to be used to identify compounds with in vivo complement inhibitory activity.
Hemolytic molecular titrations of classical complement activity were performed according to Rapp and Borsos [Molecular Basis of Complement Action, Appleton-Century-Crofts, New York, NY, 1970] and complement inhibition assessed according to Hong et al. (J. Immunol. 1979, Vol. 122, 2418). Operationally, the test compound was maintained in the presence of complement during the lytic reaction of sensitized erythrocytes. Equal volumes (0.2 ml) of normal human serum (NHS), diluted in GVB^++ [Mayer, M. M. in Kabat and Mayer's Experimental Immunochemistry, 2nd Ed.; Charles C. Thomas, Springfield, Ill., 1961, p. 133] to effect lysis of Z=1, and test compound at various concentrations were mixed at 0° C. […] EA (0.2 ml of 1.5×10^8 cells/ml) and 1.8 ml of GVB^++ were added to the reaction mixture followed by incubating at 37° C. for 60 min. The extent of lysis was determined spectrophotometrically at 412 nm. The ratio of treated to untreated (Z/Zo) reaction mixtures was determined as a function of test compound concentration.

[2] = test system: reverse passive Arthus reaction (RPAR); experiment: Reverse Passive Arthus Reaction (RPAR) in guinea pigs, complement mediated model of acute inflammation; type: in vivo, guinea pig; details: 80 mg/kg iv, 20 min before elicitation; p = 0.001
Protocol: as §1

Compound	IC50 [1] [µM]	RPAR % Inhib. [2] [%]
O=C(O)C1CC=C(c2c(-c3ccccc3)[nH]c3ccccc23)CC1 (stereo not shown) [Example 1, 4-(2-Phenyl-1H-indol-3-yl)-3-cyclohexene-1-carboxylic acid]	135 ± 2	64 ± 7
O=C(O)c1ccc(-c2c(-c3ccccc3)[nH]c3ccccc23)cc1 [Example 15, 4-(2-Phenyl-1H-indol-3-yl)benzoic acid]	105 ± 4	
Gold sodium thiomalate [reference compound]	1070 ± 90	
